Assay results reported in patent publication US12060347B2 (BRISTOL-MYERS SQUIBB COMPANY, priority 2016, dated 2024).

molecular target: T1, human PAR4 (Homo sapiens, UniProt Q96RI0); assay: PAR4 FLIPR assay: antagonism of agonist-peptide-induced calcium mobilization in PAR4-expressing HEK293 cells; type: cell-based; conditions: H-Ala-Phe(4-F)-[…]NH2-induced intracellular calcium mobilization, 11-point curves
T1 construct: expressed in transfected cells; host or cells: HEK293 PAR4 Clone 1.2A (BMS Arctic ID 383940)
T1 sequence (Q96RI0 18-385): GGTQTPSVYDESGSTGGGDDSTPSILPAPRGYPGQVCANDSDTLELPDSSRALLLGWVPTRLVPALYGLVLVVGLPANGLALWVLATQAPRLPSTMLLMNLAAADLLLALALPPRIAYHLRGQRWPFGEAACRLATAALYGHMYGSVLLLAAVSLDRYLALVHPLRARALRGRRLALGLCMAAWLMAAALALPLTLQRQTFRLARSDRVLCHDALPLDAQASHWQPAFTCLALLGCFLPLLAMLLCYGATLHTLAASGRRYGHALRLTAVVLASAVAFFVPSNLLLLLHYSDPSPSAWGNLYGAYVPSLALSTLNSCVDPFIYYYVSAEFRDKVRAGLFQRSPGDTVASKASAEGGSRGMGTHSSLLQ

Structure (SMILES) | IC50 [nM]
COCc1cnc2c(-c3nc4c(Cl)c(F)c(OC)cc4s3)cc(C)cc2n1 [Example 283, 4-chloro-5-fluoro-6-methoxy-2-(2-(methoxymethyl)-7-methylquinoxalin-5-yl)benzo[d]thiazole] | 1.9
COC(=O)COc1cc2sc(-c3cc(C)cc4nc(OC)cnc34)nc2c(C)c1F [Example 285, methyl 2-((5-fluoro-2-(2-methoxy-7-methylquinoxalin-5-yl)-4-methylbenzo[d]thiazol-6-yl)oxy)acetate] | 16
COC(=O)COc1cc2sc(-c3cc(C)cc4nc(OC)cnc34)nc2c(Cl)c1F [Example 287, methyl 2-((4-chloro-5-fluoro-2-(2-methoxy-7-methylquinoxalin-5-yl)benzo[d]thiazol-6-yl)oxy)acetate] | 8.5
COCc1cnc2c(-c3nc4c(C)c(F)c(OCCO)cc4s3)cc(C)cc2n1 [Example 289, 2-((5-fluoro-2-(2-(methoxymethyl)-7-methylquinoxalin-5-yl)-4-methylbenzo[d]thiazol-6-yl)oxy)ethanol] | 1.3
COCc1cnc2c(-c3nc4c(Cl)c(F)c(OCC(=O)OC)cc4s3)cc(C)cc2n1 [Example 292, methyl 2-((4-chloro-5-fluoro-2-(2-(methoxymethyl)-7-methylquinoxalin-5-yl)benzo[d]thiazol-6-yl)oxy)acetate] | 0.8
COCc1cnc2c(-c3nc4c(C)c(F)c(OC)cc4s3)cc(C)cc2n1 [Example 295, 5-fluoro-6-methoxy-2-(2-(methoxymethyl)-7-methylquinoxalin-5-yl)-4-methylbenzo[d]thiazole] | 0.7
COc1cnc2c(-c3nc4c(Cl)c(C)c(OC)cc4s3)cc(C)cc2n1 [Example 299, 4-chloro-6-methoxy-2-(2-methoxy-7-methylquinoxalin-5-yl)-5-methylbenzo[d] thiazole] | 10
COCc1cnc2c(-c3nc4c(CO)c(C)c(OC)cc4s3)cc(C)cc2n1 [Example 300] | 0.9
COCc1cnc2c(-c3nc4c(C)c(F)c(OCCOC(=O)Nc5ccc(F)nc5)cc4s3)cc(C)cc2n1 [Example 303, 2-((5-fluoro-2-(2-(methoxymethyl)-7-methylquinoxalin-5-yl)-4-methylbenzo[d]thiazol-6-yl)oxy)ethyl (6-fluoropyridin-3-yl) carbamate] | 0.9
COc1cnc2c(-c3nc4c(Cl)c(F)c(OCCOC(=O)Nc5ccc(F)nc5)cc4s3)cc(C)cc2n1 [Example 304, 2-((4-chloro-5-fluoro-2-(2-methoxy-7-methylquinoxalin-5-yl)benzo[d]thiazol-6-yl)oxy)ethyl (6-fluoropyridin-3-yl)carbamate] | 2.3
CCOc1cc(C)c2nc(-c3cc(C)cc4nc(COC)cnc34)sc2c1 [Example 306] | 1
COCc1cnc2c(-c3nc4ccc(CO)cc4s3)cc(C)cc2n1 [Example 308, (2-(2-(methoxymethyl)-7-methylquinoxalin-5-yl)benzo[d]thiazol-6-yl)methanol] | 3.6
COCc1ccc2nc(-c3cc(C)cc4nc(COC)cnc34)sc2c1 [Example 309, 6-(methoxymethyl)-2-(2-(methoxymethyl)-7-methylquinoxalin-5-yl)benzo[d]thiazole] | 3.3
COCc1cnc2c(-c3nc4cc(O)c(OC)cc4s3)cc(C)cc2n1 [Example 310, 6-methoxy-2-(2-(methoxymethyl)-7-methylquinoxalin-5-yl)benzo[d]thiazol-5-ol] | 9.1
COCc1cnc2c(-c3nc4cc(OC)c(OC)cc4s3)cc(C)cc2n1 [Example 311, 5,6-dimethoxy-2-(2-(methoxymethyl)-7-methylquinoxalin-5-yl)benzo[d]thiazole] | 93
COCc1cnc2c(-c3nc4c(C5CC5)c(F)c(OC)cc4s3)cc(C)cc2n1 [Example 314, 4-cyclopropyl-5-fluoro-6-methoxy-2-(2-(methoxymethyl)-7-methylquinoxalin-5-yl)benzo[d]thiazole] | 10

More lines, in order of falling IC50, values ahead:

IC50 [nM] | Structure (SMILES)
15 | COc1cnc2c(-c3nc4c(CO)c(C)c(OC)cc4s3)cc(C)cc2n1 [Example 301]
11 | COCc1cnc2c(-c3nc4c(Cl)c(F)c(O)cc4s3)cc(C)cc2n1 [Example 291, 4-chloro-5-fluoro-2-(2-(methoxymethyl)-7-methylquinoxalin-5-yl) benzo[d]thiazol-6-ol]
8.6 | COc1cnc2c(-c3nc4c(C)c(F)c(OCCO)cc4s3)cc(C)cc2n1 [Example 288, 2-((5-fluoro-2-(2-methoxy-7-methylquinoxalin-5-yl)-4-methylbenzo[d]thiazol-6-yl)oxy)ethanol]
6.7 | COCc1cnc2c(-c3nc4cc(CO)c(OC)cc4s3)cc(C)cc2n1 [Example 312, (6-methoxy-2-(2-(methoxymethyl)-7-methylquinoxalin-5-yl)benzo[d]thiazol-5-yl) methanol]
6 | COCc1cnc2c(-c3nc4c(C)c(F)c(O)cc4s3)cc(C)cc2n1 [Example 290, 5-fluoro-2-(2-(methoxymethyl)-7-methylquinoxalin-5-yl)-4-methylbenzo[d] thiazol-6-ol]
5.9 | COCc1cnc2c(-c3nc4c(C)c(C)c(OC)cc4s3)cc(C)cc2n1 [Example 284, 6-methoxy-2-(2-(methoxymethyl)-7-methylquinoxalin-5-yl)-4,5-dimethylbenzo[d]thiazole]
5.7 | COCc1cnc2c(-c3nc4c(C)c(C)c(OCCO)cc4s3)cc(C)cc2n1 [Example 297, 2-((2-(2-(methoxymethyl)-7-methylquinoxalin-5-yl)-4,5-dimethylbenzo[d]thiazol-6-yl)oxy)ethanol]
5.2 | COc1cnc2c(-c3nc4c(C)c(F)c(OC)cc4s3)cc(C)cc2n1 [Example 294, 5-fluoro-6-methoxy-2-(2-methoxy-7-methylquinoxalin-5-yl)-4-methylbenzo[d]thiazole]
4.9 | COc1cnc2c(-c3nc4c(F)c(F)c(OCCNS(=O)(=O)c5cccc(F)c5)cc4s3)cc(C)cc2n1 [Example 316, N-(2-((4,5-difluoro-2-(2-methoxy-7-methylquinoxalin-5-yl)benzo[d]thiazol-6-yl)oxy)ethyl)-3-fluorobenzenesulfonamide]
4.5 | COCc1cnc2c(-c3nc4c(F)c(F)c(OCCNS(=O)(=O)c5cccc(F)c5)cc4s3)cc(C)cc2n1 [Example 317, N-(2-((4,5-difluoro-2-(2-(methoxymethyl)-7-methylquinoxalin-5-yl)benzo[d]thiazol-6-yl)oxy)ethyl)-3-fluorobenzenesulfonamide]
4.3 | COc1cnc2c(-c3nc4cc(F)c(OC)cc4s3)cc(C)cc2n1 [Example 280, 5-fluoro-6-methoxy-2-(2-methoxy-7-methylquinoxalin-5-yl)benzo[d]thiazole]
3.6 | COCc1cnc2c(-c3nc4c(C)cc(O)cc4s3)cc(C)cc2n1 [Example 281, 2-(2-(methoxymethyl)-7-methylquinoxalin-5-yl)-4-methylbenzo[d]thiazol-6-ol]
3.3 | CCOc1cc2sc(-c3cc(C)cc4nc(OC)cnc34)nc2c(F)c1F [Example 315, 6-ethoxy-4,5-difluoro-2-(2-methoxy-7-methylquinoxalin-5-yl)benzo[d]thiazole]
3.2 | COc1cnc2c(-c3nc4c(C)c(F)c(OCCOC(=O)Nc5ccc(F)nc5)cc4s3)cc(C)cc2n1 [Example 302, 2-((5-fluoro-2-(2-methoxy-7-methylquinoxalin-5-yl)-4-methylbenzo[d]thiazol-6-yl)oxy)ethyl (6-fluoropyridin-3-yl)carbamate]
2.9 | COCc1cnc2c(-c3nc4c(OC)c(F)c(Cl)cc4s3)cc(C)cc2n1 [Example 313, 6-chloro-5-fluoro-4-methoxy-2-(2-(methoxymethyl)-7-methylquinoxalin-5-yl) benzo[d]thiazole]
2.1 | COCc1cnc2c(-c3nc4c(Cl)c(C)c(OC)cc4s3)cc(C)cc2n1 [Example 298, 4-chloro-6-methoxy-2-(2-(methoxymethyl)-7-methylquinoxalin-5-yl)-5-methylbenzo[d]thiazole]
1.2 | COCc1cnc2c(-c3nc4c(C)c(C)c(OCC(=O)OC)cc4s3)cc(C)cc2n1 [Example 296, methyl 2-((2-(2-(methoxymethyl)-7-methylquinoxalin-5-yl)-4,5-dimethylbenzo[d]thiazol-6-yl)oxy)acetate]
1.1 | COc1cnc2c(-c3nc4c(Cl)c(F)c(OC)cc4s3)cc(C)cc2n1 [Example 282, 4-chloro-5-fluoro-6-methoxy-2-(2-methoxy-7-methylquinoxalin-5-yl)benzo[d]thiazole]
1 | COCc1cnc2c(-c3nc4c(Cl)c(F)c(OCCO)cc4s3)cc(C)cc2n1 [Example 293, 2-((4-chloro-5-fluoro-2-(2-(methoxymethyl)-7-methylquinoxalin-5-yl)benzo[d]thiazol-6-yl)oxy)ethanol]
1 | COCc1cnc2c(-c3nc4c(Cl)c(F)c(OCCOC(=O)Nc5ccc(F)nc5)cc4s3)cc(C)cc2n1 [Example 305, 2-((4-chloro-5-fluoro-2-(2-(methoxymethyl)-7-methylquinoxalin-5-yl)benzo[d]thiazol-6-yl)oxy)ethyl (6-fluoropyridin-3-yl)carbamate]
0.9 | COCc1cnc2c(-c3nc4c(C)cc(OCc5ccccc5)cc4s3)cc(C)cc2n1 [Example 307, 6-(benzyloxy)-2-(2-(methoxymethyl)-7-methylquinoxalin-5-yl)-4-methylbenzo[d]thiazole]
0.5 | COCc1cnc2c(-c3nc4c(C)c(F)c(OCC(=O)OC)cc4s3)cc(C)cc2n1 [Example 286, methyl 2-((5-fluoro-2-(2-(methoxymethyl)-7-methylquinoxalin-5-yl)-4-methylbenzo[d]thiazol-6-yl)oxy)acetate]
